Experimental data: PMC12410356 (International Journal for Parasitology: Drugs and Drug …, 2025)

Experiments:
[1] = tested on: E. multilocularis metacestode vesicles; assay: Metacestode vesicle viability assay (ATP, CellTiter-Glo); assay type: cell-based, Echinococcus multilocularis
Description: Viability was assessed after 12 days using the same metacestode vesicles as for the PGI release assay. Triton X-100 was added to each well to a final concentration of 0.1 %. Subsequently the metacestode vesicles were broken mechanically and 50 μL of the supernatant was mixed with 50 μL of CellTiter-Glo® buffer (Promega, Dübendorf, Switzerland). Measurements were performed on a HIDEX Sense microplate reader.

[2] = tested on: E. multilocularis metacestode vesicles; assay: Phosphoglucose isomerase (PGI) release assay (damage-marker release) on metacestode vesicles; assay type: cell-based, Echinococcus multilocularis; settings: 10 μM; for PGI d5 (relative PGI release): 5 days; for PGI d12 (relative PGI release): 12 days
[3] = overview screen, 10 μM, singlets, 12 days, relative to DMSO control
[4] = overview screen, singlets, relative to 0.1 % Triton X-100, DMSO subtracted
[5] = confirmation screen, 10 μM, triplicates, mean, 12 days
[6] = confirmation screen, triplicates, mean

SMILES	Viability d12 (relative viability) [1, 3] [%]	PGI d5 (relative PGI release) [2, 4] [%]	PGI d12 (relative PGI release) [2, 4] [%]	Viability d12 (relative viability) [1, 5] [%]	PGI d5 (relative PGI release) [2, 6] [%]	PGI d12 (relative PGI release) [2, 6] [%]	Viability d12 (relative viability) ([1]; 10 µM) [%]
Fc1ccc2c(/C=C/c3cccnc3)c[nH]c2c1 [MMV1578889]	96.8566	-2.006	1.559	–	–	–	–
O=S(=O)(Nc1cccc2cccnc12)c1ccccc1 [MMV1578890]	2.254	53.5139	49.7638	68.64	0.50	-0.0456	–
O=C(Cn1cnc2ccccc2c1=O)Nc1ccccc1 [MMV1578891]	139.913	-0.325	-3.282	–	–	–	–
CCOC(=O)N1CCN(c2ccc(Cl)cc2)CC1 [MMV1578898]	47.7603	-0.03171	1.172	–	–	–	–
CCCC(=O)OCCc1ccccc1 [MMV1578899]	64.2092	-0.4977	-12.5447	–	–	–	–
C=C(C)n1c(=O)n(Cc2ccccc2C)c2ccccc21 [MMV1579354]	10.0196	29.5855	93.1874	130.19	-0.0635	0.33	–
O=c1cc(OCc2ccccc2)ccn1Cc1ccccc1 [MMV1579775]	63.3743	-1.928	-10.779	–	–	–	–
NS(=O)(=O)c1ccc(NC(=O)NC(c2ccccc2)c2ccccc2)cc1 [MMV1579776]	8.5167	-0.6102	61.5508	80.00	-0.15	-0.30	–
O=[N+]([O-])c1cn(Cc2nc(O)nc(O)c2Br)cn1 [MMV1579777]	93.1599	-0.845	-7.383	–	–	–	–
C[C@H](NC(CC(=O)c1ccccc1C(F)(F)F)C(=O)O)c1ccccc1 (stereo partly drawn) [MMV1579778]	114.059	-3.315	-4.896	–	–	–	–
CC(=O)Nc1cc(NS(=O)(=O)c2ccc(Cl)cc2)cc2c(Cl)n[nH]c12 [MMV1579779]	88.2086	1.247	30.3469	–	–	–	–
CC(C)n1cnc2c(NCc3ccccc3)nc(NCc3ccccc3)nc21 [MMV1579780]	34.6202	13.6684	58.0803	–	–	–	–
CC(Cc1ccccc1)C(=O)Nc1ccc(Cl)cc1C(=O)O (stereo not drawn) [MMV1579781]	82.6324	-1.72	1.6268	–	–	–	–
Cc1cccc(CC(=O)N[C@H]2CCOC2=O)c1 [MMV1579782]	167.646	1.649	1.447	–	–	–	–
CCCCSc1nc(N)c2[nH]c(=O)c(=O)n(Cc3ccccc3)c2n1 [MMV1579783]	63.4578	3.365	-15.2556	–	–	–	–
O=C(Nc1ccccc1C(=O)O)c1cccc(Oc2ccccc2)c1 [MMV1579784]	41.5815	0.07516	11.2094	–	–	–	–
N#CCN1C(=O)COc2cc(F)c(N3C(=O)c4ccccc4C3=O)cc21 [MMV1579785]	95.5206	-1.9012	-13.7258	–	–	–	–
Cl.Cl.NCCCc1ccccc1C(=O)Nc1ncc([N+](=O)O)s1 [MMV1579786]	116.729	-0.3411	-16.376	–	–	–	–
O=C(CP(=O)(O)O)NCCc1cccc(Oc2ccccc2)c1 [MMV1579787]	61.3703	-1.804	-11.6628	–	–	–	–
Cc1c(CN(C)C(=O)/C=C/c2cnc3c(c2)C(C)(C)C(=O)N3)oc2ccccc12 [MMV1579788]	5.845	17.9293	63.9713	76.12	-0.0109	-0.0852	–
Cl.N=C(N)c1ccc(COc2ccc(Cl)cc2)cc1 [MMV1579844]	5.845	-0.5727	10.4621	–	–	–	–
O=C(NCc1cccc2ccccc12)c1cccs1 [MMV1579845]	53.7721	-2.677	-26.5326	–	–	–	–

SMILES	Viability d12 (relative viability) [1, 3] [%]	PGI d5 (relative PGI release) [2, 4] [%]	PGI d12 (relative PGI release) [2, 4] [%]	Viability d12 (relative viability) [1, 5] [%]	PGI d5 (relative PGI release) [2, 6] [%]	PGI d12 (relative PGI release) [2, 6] [%]	Viability d12 (relative viability) ([1]; 10 µM) [%]
COc1cc(Cc2cc(N)nc(N)n2)cc(OC)c1OC [MMV1579846]	26.7191	1.265	19.1796	–	–	–	–
Cc1ccn2c(C(=O)NCc3ccccc3)c(C)nc2c1 [MMV1579847]	87.8278	-1.164	-2.526	–	–	–	–
N[C@@H]1CN(c2c(F)cc3c(=O)c(C(=O)O)cn([C@@H]4C[C@@H]4F)c3c2Cl)CC12CC2 [MMV1579850]	103.25	-2.37	-5.627	–	–	–	–
O=C(O)c1ccccc1Sc1ncnc2sc3c(c12)CCC3 [MMV1579878]	137.353	-1.729	-24.5374	–	–	–	–
COc1cc(NCc2ccc3nc(N)nc(N)c3c2C)cc(OC)c1OC [MMV1580173]	–	-1.642	-23.9013	–	–	–	66.8811
C[C@H](Cn1cnc2c(N)ncnc21)OCP(=O)(O)O [MMV1580478]	132.93	0.0562	-19.3802	–	–	–	–
CN(C)CC(=O)Nc1ccc2[nH]c(=O)c3ccccc3c2c1 [MMV1580480]	169.884	-0.09241	-0.9318	–	–	–	–
CN1CCN(Cc2ccc(-c3cnc4[nH]cc(-c5ccc6[nH]ccc6c5)c4c3)cc2)CC1 [MMV1580482]	108.591	0.2177	0.07079	–	–	–	–
CN(C)CCCOc1ccc(-c2ccc3ncc4c(c3c2)n(C2CCOCC2)c(=O)n4C)cn1 [MMV1580483]	–	-0.0428	2.3899	–	–	–	49.6824
COc1ccccc1NC(=O)c1ccccc1Sc1ccc([N+](=O)[O-])cc1 [MMV1580484]	125.738	-0.1612	8.961	–	–	–	–
COc1ccc(OCc2ccc(COc3c(Cl)cccc3Cl)cc2)c(Cl)c1 [MMV1580485]	122.098	-0.2661	-0.7114	–	–	–	–
Cc1nc(N(C)C(=O)Cc2ccc(-c3ccccn3)cc2)sc1S(N)(=O)=O [MMV1580486]	136.799	-0.111	0.7043	–	–	–	–
C/C(=N\NC(=O)C1CC1c1ccccc1)c1ccc(NC(=O)c2ccco2)cc1 (stereo not drawn) [MMV1580487]	105.695	-1.203	-0.8271	–	–	–	–
CN(C)CCCNC(=O)c1ccc(-c2cc(O)c3ncccc3c2)cc1 [MMV1580488]	174.002	-1.606	-1.51	–	–	–	–
CC[N+]1(C/C2=C/CCCCCC2)CCC(NC(=O)C2c3cc(Cl)ccc3Oc3ccc(Cl)cc32)CC1.[I-] (stereo not drawn) [MMV1580489]	73.6372	1.482	-2.113	–	–	–	–
c1cnc(NCc2ccc(CNc3ncccn3)cc2)nc1 [MMV1580490]	45.3723	0.6457	0.4288	–	–	–	–
CCOC(=O)/C=C/[C@H](C[C@@H]1CCNC1=O)NC(=O)[C@@H](CC(=O)[C@@H](NC(=O)c1cc(C)on1)C(C)C)Cc1ccc(F)cc1 [MMV1580491]	181.789	0.4485	-17.2617	–	–	–	–
CC(C)Oc1ccc(-c2nc(-c3cccc4c3CC[C@@H]4NCCO)no2)cc1C#N [MMV1580492]	55.483	-0.3732	-18.7012	–	–	–	–
O=C(/C=C\n1cnc(-c2cc(C(F)(F)F)cc(C(F)(F)F)c2)n1)NNc1ccccn1 [MMV1580493]	159.076	1.061	0.9356	–	–	–	–
CCC[C@H](NC(=O)[C@@H]1[C@H]2CCC[C@H]2CN1C(=O)[C@@H](NC(=O)[C@@H](NC(=O)c1cnccn1)C1CCCCC1)C(C)(C)C)C(=O)C(=O)NC1CC1 [MMV1580494]	83.9614	0.1247	-0.8271	–	–	–	–
Nc1cnn(C2OC(CO)C(O)C2O)c(=O)n1 (stereo not drawn) [MMV1580495]	84.6299	0.6182	10.061	–	–	–	–
